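Values below derive from 48-hour exposures of cells grown in 96-well plates, with endpoints linearly interpolated between the two concentrations bracketing the appropriate inhibition level. Abbreviation: GI50, concentration required for 50% inhibition of growth. TGI marks complete inhibition of growth.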
Assays:
Experiment in all cases: NCI anticancer screen, dose series, 48 h
[1] = test system: HOP-92 NSCLC
[2] = test system: SNB-19 CNS
[3] = test system: UACC-62 melanoma
[4] = test system: T-47D breast
[5] = test system: SF-539 CNS
[6] = test system: SN12C renal
[7] = test system: HL-60(TB) leukemia
[8] = test system: SF-295 CNS
[9] = test system: K-562 leukemia
[10] = test system: MALME-3M melanoma

Compound | TGI [1] | TGI [2] | TGI [3] | TGI [4] | TGI [5] | TGI [6] | TGI [7] | TGI [8] | TGI [9] | GI50 [1] | GI50 [2] | GI50 [3] | GI50 [4] | GI50 [6] | GI50 [7] | GI50 [8] | GI50 [5] | GI50 [9] | GI50 [10] | TGI [10]
Cc1ccc(C)c2c(N=Nc3ccccc3[N+](=O)[O-])c(O)[nH]c12 | > 100 µM | > 100 µM | > 100 µM | > 100 µM | > 100 µM | > 100 µM | > 100 µM | > 100 µM | > 100 µM | – | – | – | – | – | – | – | – | – | – | –
COc1cc(NC(C)CCCN)c2ncccc2c1Sc1ccc(Cl)cc1 (centres undefined) | 3.48 µM | 3.46 µM | 3.33 µM | 3.34 µM | – | 3.06 µM | 3.88 µM | 4.06 µM | – | 1.37 µM | 1.8 µM | 1.75 µM | 1.77 µM | 1.62 µM | 2.05 µM | 2.01 µM | – | – | – | –
CC(=O)c1cccc(NC(=O)c2ccc(NC3=C(Cl)C(=O)N(Cc4ccccc4)C3=O)cc2)c1 | 22.8 µM | > 100 µM | 29.3 µM | > 100 µM | 28.7 µM | 9.63 µM | 17.2 µM | 47.8 µM | > 100 µM | 6.45 µM | 32.8 µM | 13.8 µM | 25.1 µM | 1.92 µM | 2.83 µM | 15.3 µM | 11.4 µM | 8.37 µM | – | –
COc1ccc(C(=O)OC2C(OC3C(O)COC(O[C@H]4C[C@H]5[C@@H]6CC=C7C[C@@H](O)CC[C@]7(C)[C@H]6CC[C@]5(C)[C@H]4[C@H](C)C(=O)CCC(C)C)C3OC(C)=O)OCC(O)C2O)cc1 (some centres undefined) | 1.43 µM | – | < 0.003 µM | 1.13 µM | < 0.003 µM | 28.3 µM | – | < 0.003 µM | – | 0.00636 µM | – | < 0.003 µM | < 0.003 µM | 1.11 µM | – | < 0.003 µM | < 0.003 µM | – | < 0.003 µM | 0.129 µM
Cc1cc2c(=O)cc(-c3ccc(F)cc3)oc2c(C(=O)O)c1C | – | > 100 µM | > 100 µM | – | > 100 µM | > 100 µM | – | > 100 µM | > 100 µM | – | – | – | – | – | – | – | – | – | – | > 100 µM
CC/C=C\C[C@H](O)C/C=C1/C(=O)C=C[C@@H]1C/C=C\CCCC(=O)NC | 6.66 µM | 20.9 µM | 3.5 µM | 12.5 µM | – | 8.5 µM | 7.24 µM | 6.08 µM | > 100 µM | 3.3 µM | 6.91 µM | 1.37 µM | 2.32 µM | 2.33 µM | 1.7 µM | 2.44 µM | – | 1.7 µM | 1.94 µM | 4.65 µM
COc1cc2c(cc1O)C(c1cc(O)c(O)c(OC)c1)C(O)(C(=O)O)C(CO)C2O (centres undefined) | > 100 µM | > 100 µM | > 100 µM | > 100 µM | > 100 µM | 32.6 µM | – | > 100 µM | > 100 µM | – | – | – | – | – | – | – | – | – | – | > 100 µM
CC12CC(Sc3ccccc3N1)c1ccccc1O2 (centres undefined) | 35.2 µM | 30 µM | 30.7 µM | – | 32.5 µM | 36 µM | 28.8 µM | 29.8 µM | 40.2 µM | – | – | – | – | – | – | – | – | – | – | 30.1 µM
O=[N+]([O-])c1ccc(COc2cccc3cccnc23)cc1 | > 100 µM | > 100 µM | 45.2 µM | – | 92.7 µM | > 100 µM | 22.3 µM | > 100 µM | 35.9 µM | – | – | – | – | – | – | – | – | – | – | > 100 µM
Cc1cnc(SCCN2CCN(C)CC2)nc1-c1cc2ccccc2s1 | 18.3 µM | – | 32.2 µM | – | 25.1 µM | 21.3 µM | – | 21.2 µM | – | – | – | – | – | – | – | – | – | – | – | 31.6 µM
CCOP(=O)(CC(=O)C1=C(O)C(CCCCNC(=O)OC(C)(C)C)N(Cc2ccccc2)C1=O)OCC (centres undefined) | – | – | > 100 µM | – | > 100 µM | > 100 µM | > 100 µM | > 100 µM | > 100 µM | – | – | – | – | – | – | – | – | – | – | > 100 µM
CN1C(=O)C(=CN(C)c2ccccc2)C(=O)N(C)C1=O | – | > 100 µM | > 100 µM | – | > 100 µM | > 100 µM | > 100 µM | > 100 µM | > 100 µM | – | – | – | – | – | – | – | – | – | – | > 100 µM
O=C1c2c(c3c4ccccc4[nH]c3c3[nH]c4ccccc4c23)C(=O)N1Cc1ccccc1 | 5.65 µM | 9.02 µM | 16.2 µM | – | 6.26 µM | 5.6 µM | – | 13.3 µM | 14.2 µM | – | – | – | – | – | – | – | – | – | – | 11.9 µM
Cc1cc(NS(=O)(=O)c2ccc(NC(=O)COC(=O)c3cccc4c(=O)c5ccccc5[nH]c34)cc2)no1 | > 100 µM | > 100 µM | > 100 µM | – | > 100 µM | > 100 µM | > 100 µM | > 100 µM | > 100 µM | – | – | – | – | – | – | – | – | – | – | > 100 µM
COC1=CC(=O)NCCN1 | > 100 µM | > 100 µM | > 100 µM | – | > 100 µM | > 100 µM | 41 µM | > 100 µM | > 100 µM | – | – | – | – | – | – | – | – | – | – | > 100 µM
Cc1cc(C)c(C(=O)/C=C/c2ccccc2)c(C)c1 | 58.4 µM | 75.3 µM | > 100 µM | – | – | 34.7 µM | > 100 µM | 48.8 µM | > 100 µM | – | – | – | – | – | – | – | – | – | – | 83.5 µM
CC(C)(C)N=CN(C=C(c1ccccc1)c1ccccc1)C1CCCCC1 | 82.4 µM | > 100 µM | > 100 µM | – | > 100 µM | > 100 µM | – | 93.3 µM | 39.9 µM | – | – | – | – | – | – | – | – | – | – | 35.8 µM
C#CC(=O)OCC#CCOC(=O)C#C | 34.8 µM | > 100 µM | 56.7 µM | 60.2 µM | 28.8 µM | 82.3 µM | – | > 100 µM | – | – | – | – | – | – | – | – | – | – | – | 38 µM
CN(C)CCNc1nc2ccccc2c2occc12 | > 100 µM | > 100 µM | 34.3 µM | > 100 µM | 83.6 µM | 82.5 µM | > 100 µM | > 100 µM | 98.9 µM | 54.1 µM | 71.7 µM | 16.6 µM | > 100 µM | 27.7 µM | 49.6 µM | 60.2 µM | 35.9 µM | 25.9 µM | – | –
CN(C)CCOc1ccc(-c2cc(-c3ccc4c(c3)CC/C4=N\O)c(-c3ccncc3)o2)cc1 | – | 8.6 µM | 3.79 µM | 9.62 µM | 7.41 µM | 7.73 µM | 10.8 µM | 7.68 µM | 3.27 µM | – | 4.68 µM | 0.0906 µM | 4.66 µM | 3.96 µM | 5.46 µM | 3.8 µM | 3.64 µM | 0.668 µM | 0.0245 µM | 0.179 µM
